Test system: CD1 female mouse brain lipidome
Test: Brain-region lipid levels (HPLC/MS/MS lipidomics) 2 h after single i.p. 3 mg/kg CP 55,940 vs vehicle
Format: in vivo
Procedure: The Bloomington Institutional Animal Care and Use Committee of Indiana University reviewed and approved the animal procedures. Female mice from the CD1 strain were utilized to match our study examining THC’s effects on the brain lipidome ([Leishman et al., 2018]). Mice were given a single i.p. injection of either 3 mg/kg CP or 1:1:18 cremophor:ethanol:saline vehicle (please refer to the section “3 mg/kg CP Is Relevant for Synthetic Cannabinoid Abuse and Has Stronger Effects on the Female Mouse Brain Lipidome During Adolescence” for a justification of dose and use of female mice). Three different age groups were given injections: PND 35 and PND 50 adolescents, and adult mice (PND 113). At least eight mice in each age group received CP and at least eight received vehicle. Matching the THC study time course ([Leishman et al., 2018]), mice were sacrificed via rapid decapitation 2 h after injection. Brains were immediately removed and flash-frozen in liquid nitrogen, and then stored at -80°C until dissections were performed. Brains were dissected on an ice-cold dissection plate into the following regions: STR, HIPP, CER, THAL, CTX, HYP, MID, and STEM. These abbreviations for these brain areas will be used exclusively when discussing the results generated by these specific dissections. Each dissected area was immediately placed in liquid nitrogen and then stored at -80°C until used for lipid extraction.
Tissue extracts were performed as previously described ([Bradshaw et al., 2006]; [Stuart et al., 2013]; [Raboune et al., 2014]; [Leishman et al., 2016a],[b], [2017], [2018]). First, samples were shock frozen in liquid nitrogen, weighed, and transferred to a centrifuge tube. The mass of the largest sample was multiplied by 50 to determine how many milliliters of HPLC-grade methanol (Fisher, Fair Lawn, NJ, United States) to add. Then, samples were spiked with 500 pmol deuterium-labeled NAGly (d8NAGly; Cayman Chemical, Ann Arbor, MI, United States). Samples were placed on ice in darkness for 2 h then individually homogenized and centrifuged at 19,000 × g for 20 min at 20°C. Supernatants were diluted with HPLC water (purified in house) to make a solution of 75% water, 25% supernatant. Lipids were partially purified on C18 solid phase extraction columns (Agilent, Palo Alto, CA, United States). A series of four elutions with 1.5 mL of 60%, 75%, 85%, and 100% methanol were collected ([Stuart et al., 2013]; [Leishman et al., 2016a],[b], [2018]).
As previously described ([Bradshaw et al., 2006]; [Tan et al., 2006]; [Smoum et al., 2010]; [Stuart et al., 2013]; [Tortoriello et al., 2013]; [Raboune et al., 2014]; [Leishman et al., 2016a],[b], [2017], [2018]), samples were analyzed using an Applied Biosystems API 3000 triple quadrupole mass spectrometer with electrospray ionization (Foster City, CA, United States). Using an Agilent XDB-C18 reversed phase analytical column and optimized mobile phase gradients, 20 μL from each elution were chromatographed. Two Shimadzu 10ADvp pumps (Columbia, MD, United States) provided the pressure for gradient elution. Mobile phase A: 20% methanol, 80% water (v/v) and 1 mM ammonium acetate (Sigma, St. Louis, MO, United States). Mobile phase B: 100% methanol, 1 mM ammonium acetate. Every method run began with 0% mobile phase B, reached 100% mobile phase B flowing at 0.2 mL/min, and gradually returned to 0% mobile phase B.
This screening library will be referred to as the lipidome when discussing data from this study. HPLC/MS/MS data were analyzed using Analyst software (Applied Biosystems) ([Bradshaw et al., 2006]; [Tan et al., 2006]; [Stuart et al., 2013]; [Tortoriello et al., 2013]; [Raboune et al., 2014]; [Leishman et al., 2016a],[b], [2017], [2018]). Chromatograms (Supplementary Figure 3) were generated by determining the retention time of analytes from the analytical column with a [M-1] or [M+1] parent peak and a fragmentation peak corresponding to the programmed values. […]

[1] = adult midbrain, 3mg/kg CP 55,940, p .049
[2] = adult midbrain, 3mg/kg CP 55,940, p .055
[3] = adult midbrain, 3mg/kg CP 55,940, p .060
[4] = adult midbrain, 3mg/kg CP 55,940, p .063
[5] = adult midbrain, 3mg/kg CP 55,940, p .073
[6] = adult midbrain, 3mg/kg CP 55,940, p .087
[7] = adult midbrain, 3mg/kg CP 55,940, p .098
[8] = brainstem, PND35, 3 mg/kg CP 55,940 vs Veh
[9] = brainstem, PND35 female mice, 3mg/kg CP 55,940, mean
[10] = brainstem, PND 50, 3 mg/kg CP 55,940

CCCCCCC(C)(C)c1ccc([C@@H]2C[C@H](O)CC[C@H]2CCCO)c(O)c1 [CP 55,940]
PGE2 Direction (relative to Veh) [1]: ↑
PGE2 Magnitude (x Veh level) [1]: 1.17
6-ketoPGF1α Direction (relative to Veh) [2]: ↑
6-ketoPGF1α Magnitude (x Veh level) [2]: 1.29
N-arachidonoyl ethanolamine, Direction (relative to Veh) [3]: ↓
N-arachidonoyl ethanolamine, Magnitude (x Veh level) [3]: 0.78
N-linoleoyl glycine Direction (relative to Veh) [4]: ↓
N-linoleoyl glycine Magnitude (x Veh level) [4]: 0.52
N-stearoyl ethanolamine direction (relative to Veh) [5]: ↑
N-stearoyl ethanolamine magnitude (x Veh level) [5]: 1.44
N-linoleoyl serine Direction (relative to Veh) [6]: ↓
N-linoleoyl serine Magnitude (x Veh level) [6]: 0.79
N-arachidonoyl serine Direction (relative to Veh) [7]: ↓
N-arachidonoyl serine Magnitude (x Veh level) [7]: 0.53
changes in lipid levels that were decreases (adult, eight regions): 78
2-arachidonoyl glycerol, Direction (relative to Veh) [8]: ↓
2-arachidonoyl glycerol, Magnitude (x Veh level) [8]: 0.81 x Veh level
2-linoleoyl glycerol Direction (relative to Veh) [8]: ↓
2-linoleoyl glycerol Magnitude (x Veh level) [8]: 0.82 x Veh level
N-arachidonoyl GABA Direction (relative to Veh) [8]: ↓
N-arachidonoyl GABA Magnitude (x Veh level) [8]: 0.70 x Veh level
N-arachidonoyl taurine Direction (relative to Veh) [8]: ↓
N-arachidonoyl taurine Magnitude (x Veh level) [8]: 0.89 x Veh level
N-docosahexaenoyl leucine Direction (relative to Veh) [8]: ↑
N-docosahexaenoyl leucine Magnitude (x Veh level) [8]: 1.37 x Veh level
N-docosahexaenoyl valine Direction (relative to Veh) [8]: ↑
N-docosahexaenoyl valine Magnitude (x Veh level) [8]: 1.56 x Veh level
N-oleoyl leucine Direction (relative to Veh) [8]: ↑
N-oleoyl leucine Magnitude (x Veh level) [8]: 1.15 x Veh level
N-oleoyl proline Direction (relative to Veh) [8]: ↑
N-oleoyl proline Magnitude (x Veh level) [8]: 1.16 x Veh level
N-oleoyl valine Direction (relative to Veh) [8]: ↑
N-oleoyl valine Magnitude (x Veh level) [8]: 1.26 x Veh level
N-palmitoyl leucine, Direction (relative to Veh) [8]: ↑
N-palmitoyl leucine, Magnitude (x Veh level) [8]: 1.38 x Veh level
N-palmitoyl phenylalanine Direction (relative to Veh) [8]: ↑
N-palmitoyl phenylalanine Magnitude (x Veh level) [8]: 1.22 x Veh level
N-palmitoyl proline Direction (relative to Veh) [8]: ↑
N-palmitoyl proline Magnitude (x Veh level) [8]: 1.20 x Veh level
N-palmitoyl tryptophan Direction (relative to Veh) [8]: ↓
N-palmitoyl tryptophan Magnitude (x Veh level) [8]: 0.82 x Veh level
N-palmitoyl valine Direction (relative to Veh) [8]: ↑
N-palmitoyl valine Magnitude (x Veh level) [8]: 1.40 x Veh level
N-stearoyl valine Direction (relative to Veh) [8]: ↑
N-stearoyl valine Magnitude (x Veh level) [8]: 1.41 x Veh level
PGE2 Direction (relative to Veh) [8]: ↑
PGE2 Magnitude (x Veh level) [8]: 1.15 x Veh level
2-arachidonoyl glycerol level [9]: 3.96E-10
2-linoleoyl glycerol level [9]: 1.58E-10
2-oleoyl glycerol level [9]: 1.53E-09
2-palmitoyl glycerol level [9]: 2.82E-10
6-ketoPGF1α level [9]: 1.2E-11
11-OH-THC level [9]: BDL
11-nor-9-carboxyTHC level [9]: BDL
Arachidonic acid level [9]: 1.65E-09
Cannabidiol level [9]: BDL
Linoleic acid level [9]: 5.88E-10
N- stearoyl valine level [9]: 5.2E-13
N-arachidonoyl serine level [9]: 3.04E-12
N-arachidonoyl taurine level [9]: 1.88E-11
N-arachidonoyl tryptophan level [9]: BDL
N-arachidonoyl tyrosine level [9]: 6.37E-13
N-docosahexaenoyl serine level [9]: 1.42E-11
N-docosahexaenoyl tyrosine level [9]: 8.89E-13
N-docosahexaenoyl valine level [9]: 1.82E-13
N-linoleoyl serine level [9]: 2.61E-11
N-linoleoyl tryptophan level [9]: BDL
N-linoleoyl tyrosine level [9]: BDL
N-nervonoyl valine level [9]: BDL
N-oleoyl proline level [9]: 6.88E-13
N-oleoyl serine level [9]: 1.44E-10
N-oleoyl tyrosine level [9]: 5.15E-13
N-oleoyl valine level [9]: 5.41E-13
N-palmitoyl proline level [9]: 9.02E-13
N-palmitoyl serine level [9]: 3.95E-11
N-palmitoyl tryptophan level [9]: 2.02E-13
N-palmitoyl tyrosine level [9]: 8.2E-13
N-palmitoyl valine level [9]: 1.16E-12
N-stearoyl proline level [9]: 4.63E-13
N-stearoyl serine level [9]: 2.01E-11
N-stearoyl tryptophan level [9]: 2.84E-13
N-stearoyl tyrosine level [9]: 8.52E-14
Oleic acid level [9]: 1.63E-09
PGE2 level [9]: 2.93E-10
PGF2α level [9]: 2.4E-10
PhosphoLEA level [9]: 2.06E-11
THC level [9]: BDL
2-arachidonoyl glycerol level, Mean [10]: 2.23E-10
2-linoleoyl glycerol level, Mean [10]: 2.39E-10
2-oleoyl glycerol level, Mean [10]: 3.85E-09
2-palmitoyl glycerol level, Mean [10]: 8.83E-10
6-ketoPGF1α level, Mean [10]: 1.35E-11
11-OH-THC level, Mean [10]: BDL
11-nor-9-carboxyTHC level, Mean [10]: BDL
Arachidonic acid level, Mean [10]: 1.44E-10
Cannabidiol level, Mean [10]: BDL
Linoleic acid level, Mean [10]: 1.4E-10
N- stearoyl valine level, Mean [10]: 8.37E-14
N-arachidonoyl GABA level, Mean [10]: 3.67E-12
N-arachidonoyl alanine level, Mean [10]: 1.22E-13
N-arachidonoyl dopamine level, Mean [10]: BDL
N-arachidonoyl ethanolamine level, Mean [10]: 2.44E-11
